Legend:
human COX-1 = biological target: T1, human COX-1 (Ovis aries, UniProt P05979); assay: In vitro COX-1 inhibition assay
T1 sequence (P05979 25-600): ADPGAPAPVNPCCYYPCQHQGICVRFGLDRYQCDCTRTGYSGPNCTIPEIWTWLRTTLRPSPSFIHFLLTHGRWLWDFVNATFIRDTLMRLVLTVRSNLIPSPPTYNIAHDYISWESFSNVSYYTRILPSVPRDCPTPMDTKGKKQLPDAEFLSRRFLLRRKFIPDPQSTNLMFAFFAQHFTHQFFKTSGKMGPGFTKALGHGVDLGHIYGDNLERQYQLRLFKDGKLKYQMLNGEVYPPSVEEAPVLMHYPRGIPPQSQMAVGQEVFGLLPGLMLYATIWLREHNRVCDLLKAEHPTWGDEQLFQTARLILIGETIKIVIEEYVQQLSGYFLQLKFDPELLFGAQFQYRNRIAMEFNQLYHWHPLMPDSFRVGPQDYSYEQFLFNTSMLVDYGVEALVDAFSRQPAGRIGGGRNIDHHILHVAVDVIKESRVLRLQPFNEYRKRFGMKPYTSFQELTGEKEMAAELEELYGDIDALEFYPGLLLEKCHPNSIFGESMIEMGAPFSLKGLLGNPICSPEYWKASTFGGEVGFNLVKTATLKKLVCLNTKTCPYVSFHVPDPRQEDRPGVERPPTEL

human COX-2 = biological target: T2, human COX-2 (Homo sapiens, UniProt P35354); assay: In vitro COX-2 inhibition assay; conditions: for COX-2 SI: Selectivity index = COX-1 IC50/COX-2 IC50
T2 sequence (P35354 18-604): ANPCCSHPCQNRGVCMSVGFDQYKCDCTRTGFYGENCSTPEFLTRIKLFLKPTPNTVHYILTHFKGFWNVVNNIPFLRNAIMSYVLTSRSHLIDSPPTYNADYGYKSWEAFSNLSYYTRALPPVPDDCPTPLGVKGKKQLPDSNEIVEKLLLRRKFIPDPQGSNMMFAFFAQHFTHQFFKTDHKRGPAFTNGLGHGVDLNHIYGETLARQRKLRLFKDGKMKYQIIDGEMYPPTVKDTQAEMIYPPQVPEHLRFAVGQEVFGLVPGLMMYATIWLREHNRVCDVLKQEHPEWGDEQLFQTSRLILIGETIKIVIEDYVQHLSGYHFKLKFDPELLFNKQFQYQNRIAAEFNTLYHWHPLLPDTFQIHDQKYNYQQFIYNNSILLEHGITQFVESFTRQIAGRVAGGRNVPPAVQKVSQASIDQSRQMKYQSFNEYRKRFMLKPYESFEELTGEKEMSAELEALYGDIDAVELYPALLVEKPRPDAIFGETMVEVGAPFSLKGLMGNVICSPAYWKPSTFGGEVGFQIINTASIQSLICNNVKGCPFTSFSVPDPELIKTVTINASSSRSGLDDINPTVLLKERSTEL

[1] = tested on: LPS-induced NO production in RAW 264.7 cells; assay: NO production in LPS-activated RAW 264.7 macrophages; assay type: cell-based, murine; conditions: vs reference celecoxib
[2] = tested on: LPS-induced ROS production in RAW 264.7 cells; assay: ROS production in LPS-activated RAW 264.7 macrophages; assay type: cell-based, murine; conditions: vs reference celecoxib

SMILES | IC50 (human COX-1) | IC50 (human COX-2) | COX-2 SI (human COX-2) | fold better NO IC50 than celecoxib [1] | fold lower ROS IC50 than celecoxib [2]
CC(=O)c1ccc(NC(=O)CSc2nnc(-c3ccc(NC(=O)c4cccnc4)cc3)n2N)cc1 [Compound 11a, N-(4-(5-((2-((4-Acetylphenyl)amino)-2-oxoethyl)thio)-4-amino-4H-1,2,4-triazol-3-yl)phenyl) nicotinamide] | 8.5 ± 0.62 µM | 0.11 ± 0.01 µM | 77.27 |  | 
Nn1c(SCC(=O)Nc2ccc([N+](=O)[O-])cc2)nnc1-c1ccc(NC(=O)c2cccnc2)cc1 [Compound 11b, N-(4-(4-Amino-5-((2-((4-nitrophenyl)amino)-2-oxoethyl)thio)-4H-1,2,4-triazol-3-yl)phenyl) nicotinamide] | 11.5 ± 1.41 µM | 0.08 ± 0.01 µM | 143.75 |  | 
O=C(CSc1nnc(-c2ccc(NC(=O)c3cccnc3)cc2)o1)Nc1cccc(Br)c1 [Compound 8f, N-(4-(5-((2-((3-Bromophenyl)amino)-2-oxoethyl)thio)-1,3,4-oxadiazol-2-yl)phenyl)nicotinamide] | 10 ± 3.17 µM | 0.08 ± 0.01 µM | 125 |  | 
O=C(CSc1nnc(-c2ccc(NC(=O)c3cccnc3)cc2)o1)Nc1ccc([N+](=O)[O-])cc1 [Compound 8b, N-(4-(5-((2-((4-Nitrophenyl)amino)-2-oxoethyl)thio)-1,3,4-oxadiazol-2-yl)phenyl)nicotinamide] | 8.5 ± 0.6 µM | 0.14 ± 0.01 µM | 60.71 | more than 41 fold | about 476 fold
O=C(CSc1nnc(-c2ccc(NC(=O)c3cccnc3)cc2)o1)Nc1ccccc1Cl [Compound 8g, N-(4-(5-((2-((2-Chlorophenyl)amino)-2-oxoethyl)thio)-1,3,4-oxadiazol-2-yl)phenyl)nicotinamide] | 8.5 ± 0.71 µM | 0.05 ± 0.01 µM | 170 |  | 
Nn1c(SCC(=O)Nc2cccc(Br)c2)nnc1-c1ccc(NC(=O)c2cccnc2)cc1 [Compound 11f, N-(4-(4-Amino-5-((2-((3-bromophenyl)amino)-2-oxoethyl)thio)-4H-1,2,4-triazol-3-yl)phenyl) nicotinamide] | 9.5 ± 0.99 µM | 0.09 ± 0.01 µM | 105.56 |  | 
O=C(CSc1nnc(-c2ccc(NC(=O)c3cccnc3)cc2)o1)Nc1ccc(F)cc1 [Compound 8e, N-(4-(5-((2-((4-Fluorophenyl)amino)-2-oxoethyl)thio)-1,3,4-oxadiazol-2-yl)phenyl)nicotinamide] | 7.5 ± 0.75 µM | 0.11 ± 0.01 µM | 68.18 |  | 
Cc1ccc(C)c(NC(=O)CSc2nnc(-c3ccc(NC(=O)c4cccnc4)cc3)o2)c1 [Compound 8d, N-(4-(5-((2-((2,5-Dimethylphenyl)amino)-2-oxoethyl)thio)-1,3,4-oxadiazol-2-yl)phenyl) nicotinamide] | 10.5 ± 2.98 µM | 0.16 ± 0.04 µM | 65.63 |  | 

Continued by falling IC50 (human COX-1), values first:

IC50 (human COX-1) | IC50 (human COX-2) | COX-2 SI (human COX-2) | fold better NO IC50 than celecoxib [1] | fold lower ROS IC50 than celecoxib [2] | SMILES
13.5 ± 1.63 µM | 0.04 ± 0.01 µM | 337.5 |  |  | Cc1ccc(NC(=O)CSc2nnc(-c3ccc(NC(=O)c4cccnc4)cc3)n2N)cc1 [Compound 11c, N-(4-(4-Amino-5-((2-((4-methylphenyl)amino)-2-oxoethyl)thio)-4H-1,2,4-triazol-3-yl)phenyl) nicotinamide]
11.5 ± 0.85 µM | 0.05 ± 0.01 µM | 230 |  |  | Cc1ccc(NC(=O)CSc2nnc(-c3ccc(NC(=O)c4cccnc4)cc3)o2)cc1 [Compound 8c, N-(4-(5-((2-((4-Methylphenyl)amino)-2-oxoethyl)thio)-1,3,4-oxadiazol-2-yl)phenyl)nicotinamide]
11.5 ± 1.01 µM | 0.05 ± 0.01 µM | 230 |  |  | CC(=O)c1ccc(NC(=O)CSc2nnc(-c3ccc(NC(=O)c4cccnc4)cc3)o2)cc1 [Compound 8a, N-(4-(5-((2-((4-Acetylphenyl)amino)-2-oxoethyl)thio)-1,3,4-oxadiazol-2-yl)phenyl)nicotinamide]
11.5 ± 0.98 µM | 0.11 ± 0.02 µM | 104.55 |  |  | Cc1ccc(C=Nn2c(-c3ccc(NC(=O)c4cccnc4)cc3)n[nH]c2=S)cc1 [Compound 10a, N-(4-(4-((4-Methylbenzylidene)amino)-5-thioxo-4,5-dihydro-1H-1,2,4-triazol-3-yl)phenyl) nicotinamide]
10.5 ± 3.03 µM | 0.08 ± 0.01 µM | 131.25 |  |  | Cc1ccc(C)c(NC(=O)CSc2nnc(-c3ccc(NC(=O)c4cccnc4)cc3)n2N)c1 [Compound 11d, N-(4-(4-Amino-5-((2-((2,5-dimethylphenyl)amino)-2-oxoethyl)thio)-4H-1,2,4-triazol-3-yl)phenyl) nicotinamide]
10.5 ± 2.25 µM | 0.08 ± 0.01 µM | 131.25 |  |  | Nn1c(SCC(=O)Nc2ccccc2Cl)nnc1-c1ccc(NC(=O)c2cccnc2)cc1 [Compound 11g, N-(4-(4-Amino-5-((2-((2-chlorophenyl)amino)-2-oxoethyl)thio)-4H-1,2,4-triazol-3-yl)phenyl) nicotinamide]
10 ± 2.34 µM | 0.06 ± 0.01 µM | 166.67 |  |  | Nn1c(SCC(=O)Nc2ccc(F)cc2)nnc1-c1ccc(NC(=O)c2cccnc2)cc1 [Compound 11e, N-(4-(4-Amino-5-((2-((4-fluorophenyl)amino)-2-oxoethyl)thio)-4H-1,2,4-triazol-3-yl)phenyl) nicotinamide]
8 ± 0.14 µM | 0.11 ± 0.01 µM | 72.73 |  |  | O=C(Nc1ccc(-c2n[nH]c(=S)n2N=Cc2c[nH]c3ccccc23)cc1)c1cccnc1 [Compound 10b, N-(4-(4-(((1H-Indol-3-yl)methylene)amino)-5-thioxo-4,5-dihydro-1H-1,2,4-triazol-3-yl)phenyl) nicotinamide]

Source: article PMC10965220 (Bioorganic chemistry, 2022)
